Laboratory results published in US12310975B2, “Modulators of BCL6 proteolysis and associated methods of use” (Arvinas Operations, Inc., priority 2019, dated 2025).

How the values were obtained:
BCL6 [1] = molecular target: T1, BCL6 (Homo sapiens (Human), UniProt P41182); test: BCL6 TR-FRET assay (BCL6-Avitag-Biotin / BCoR-Cy5 peptide); assay type: binding
How it was run: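 After 30 min room-temperature preincubation of compound titrations with 2 nM biotinylated BCL6-Avitag, 100 nM Cy5-labelled BCoR peptide plus 2 nM Eu-streptavidin were added and TR-FRET read 2 h later. HEPES pH 7.5/125 mM NaCl buffer with Triton X, glutathione (or DTT) and BSA.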

BCL6 [2] = molecular target: T1, BCL6; test: Immunofluorescence high content imaging of BCL6 degradation in T47D cells; assay type: cell-based; settings: for Dmax: T47D; for DC50: class symbols A-D, read-out: EC50 (nM)*
How it was run: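 BCL6 loss was quantified by high-content imaging (10×, 4 fields/well) after PFA fixation and anti-BCL6/Alexa-488 staining with Hoechst nuclear and CellMask counterstains. Compounds were applied for 3 days to T47D breast cancer cells in RPMI-10% FBS, 11 points, 3-fold steps, top 0.1 or 1 μM.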

[3] = class symbols A-D, read-out: IC50 (nM)***

## CN1C(=O)CCc2cc(Nc3nc(N4CCN(CC5CCN(c6ccc7c(c6)C(=O)N(C6CCC(=O)NC6=O)C7=O)CC5)CC4)ncc3Cl)ccc21 (stereo not drawn) [compound 369, 5-{4-[(4-{5-chloro-4-[(1-methyl-2-oxo-1,2,3,4-tetrahydroquinolin-6-yl)amino]pyrimidin-2-yl}piperazin-1-yl)methyl]piperidin-1-yl}-2-(2,6-dioxopiperidin-3-yl)-2,3-dihydro-1H-isoindole-1,3-dione]
BCL6 [1]
  EC50: > 100 nM
BCL6 [2]; T47D cells
  IC50: ≥ 100 nM

## CNC(=O)[C@@H](C)Oc1cc2cc(Nc3nc(N4CCC(CN5CCN(c6ccc7c(c6)C(=O)N([C@H]6CCC(=O)NC6=O)C7=O)CC5)CC4)ncc3Cl)ccc2n(C)c1=O [compound 210, (R)-2-((6-((5-chloro-2-(4-((4-(2-((S)-2,6-dioxopiperidin-3-yl)-1,3-dioxoisoindolin-5-yl)piperazin-1-yl)methyl)piperidin-1-yl)pyrimidin-4-yl)amino)-1-methyl-2-oxo-1,2-dihydroquinolin-3-yl)oxy)-N-methylpropanamide]
BCL6 [1]
  EC50: 10 to 50 nM
BCL6 [2]
  IC50: ≥ 100 nM

## CNC(=O)COc1cc2cc(Nc3nc(N4CC5(CCC(OC6CCN(c7cccc8c7C(=O)N(C7CCC(=O)NC7=O)C8=O)CC6)CC5)C4)ncc3Cl)ccc2n(C(C)C)c1=O (stereo not drawn) [compound 445, 2-{[6-({5-chloro-2-[7-({1-[2-(2,6-dioxopiperidin-3-yl)-1,3-dioxo-2,3-dihydro-1H-isoindol-4-yl]piperidin-4-yl}oxy)-2-azaspiro[3.5]nonan-2-yl]pyrimidin-4-yl}amino)-2-oxo-1-(propan-2-yl)-1,2-dihydroquinolin-3-yl]oxy}-N-methylacetamide]
BCL6 [1]; read-out: IC50
  IC50: < 10 nM
BCL6 [2]
  Dmax: ≥ 70%

## CNC(=O)COc1cc2cc(Nc3nc(N4CCC(N5CCC6(CCN(c7ccc8c(c7)C(=O)N(C7CCC(=O)NC7=O)C8=O)CC6)C5)CC4)ncc3Cl)ccc2n(C(C)C)c1=O (stereo not drawn) [compound 521, 2-[(6-{[5-chloro-2-(4-{8-[2-(2,6-dioxopiperidin-3-yl)-1,3-dioxo-2,3-dihydro-1H-isoindol-5-yl]-2,8-diazaspiro[4.5]decan-2-yl}piperidin-1-yl)pyrimidin-4-yl]amino}-2-oxo-1-(propan-2-yl)-1,2-dihydroquinolin-3-yl)oxy]-N-methylacetamide]
BCL6 [1]; read-out: IC50
  IC50: < 10 nM
BCL6 [2]
  Dmax: 50 to 70%

## CNC(=O)COc1cc2cc(Nc3nc(N4CCC[C@H](COc5cccc6c5C(=O)N(C5CCC(=O)NC5=O)C6=O)C4)ncc3Cl)ccc2n(CCOC)c1=O (stereo partly drawn) [compound 455, 2-{[6-({5-chloro-2-[(3S)-3-({[2-(2,6-dioxopiperidin-3-yl)-1,3-dioxo-2,3-dihydro-1H-isoindol-4-yl]oxy}methyl)piperidin-1-yl]pyrimidin-4-yl}amino)-1-(2-methoxyethyl)-2-oxo-1,2-dihydroquinolin-3-yl]oxy}-N-methylacetamide]
BCL6 [1]; read-out: IC50
  IC50: 50 to 100 nM
BCL6 [2]
  Dmax: ≥ 70%

## CNC(=O)COc1cc2cc(Nc3nc(N4CCC(OC5CN(C6CCN(c7cccc8c7C(=O)N(C7CCC(=O)NC7=O)C8=O)CC6)C5)CC4)ncc3Cl)ccc2n(C(C)C)c1=O (stereo not drawn) [compound 525, 2-({6-[(5-chloro-2-{4-[(1-{1-[2-(2,6-dioxopiperidin-3-yl)-1,3-dioxo-2,3-dihydro-1H-isoindol-4-yl]piperidin-4-yl}azetidin-3-yl)oxy]piperidin-1-yl}pyrimidin-4-yl)amino]-2-oxo-1-(propan-2-yl)-1,2-dihydroquinolin-3-yl}oxy)-N-methylacetamide]
BCL6 [1]; read-out: IC50
  IC50: < 10 nM
BCL6 [2]
  Dmax: 50 to 70%

## CN(C)C(=O)COc1cc2cc(Nc3nc(N4CCC(CN5CCN(c6ccc7c(c6)C(=O)N(C6CCC(=O)NC6=O)C7=O)CC5)CC4)ncc3Cl)ccc2n(C)c1=O (stereo not drawn) [compound 166, 2-((6-((5-chloro-2-(4-((4-(2-(2,6-dioxopiperidin-3-yl)-1,3-dioxoisoindolin-5-yl)piperazin-1-yl)methyl)piperidin-1-yl)pyrimidin-4-yl)amino)-1-methyl-2-oxo-1,2-dihydroquinolin-3-yl)oxy)-N,N-dimethylacetamide]
BCL6 [1]; [3]
  IC50: 50 to 100 nM
BCL6 [2]; maximum, class symbols A-C
  Dmax: < 50%
BCL6 [2]
  DC50: > 100 nM

## CNC(=O)COc1cc2cc(Nc3nc(N4CCN(CC5CCC6(CC5)CN(c5ccc(F)c7c5C(=O)N(C5CCC(=O)NC5=O)C7=O)C6)CC4)ncc3Cl)ccc2n(C(C)C)c1=O (stereo not drawn) [compound 541, 2-{[6-({5-chloro-2-[4-({2-[2-(2,6-dioxopiperidin-3-yl)-7-fluoro-1,3-dioxo-2,3-dihydro-1H-isoindol-4-yl]-2-azaspiro[3.5]nonan-7-yl}methyl)piperazin-1-yl]pyrimidin-4-yl}amino)-2-oxo-1-(propan-2-yl)-1,2-dihydroquinolin-3-yl]oxy}-N-methylacetamide]
BCL6 [1]; read-out: IC50
  IC50: < 10 nM
BCL6 [2]
  Dmax: ≥ 70%

## CNC(=O)COc1cc2cc(Nc3nc(N4CCOC(CN5CCN(c6ccc7c(c6)C(=O)N(C6CCC(=O)NC6=O)C7=O)CC5)C4)ncc3Cl)ccc2n(C)c1=O (stereo not drawn) [compound 272, 2-{[6-({5-chloro-2-[2-({4-[2-(2,6-dioxopiperidin-3-yl)-1,3-dioxo-2,3-dihydro-1H-isoindol-5-yl]piperazin-1-yl}methyl)morpholin-4-yl]pyrimidin-4-yl}amino)-1-methyl-2-oxo-1,2-dihydroquinolin-3-yl]oxy}-N-methylacetamide]
BCL6 [1]
  EC50: < 10 nM
BCL6 [2]
  IC50: 10 to 50 nM
  Dmax: 50 to 70%

## CNC(=O)COc1cc2cc(Nc3nc(N4CCC(CN5CCC6(CCN(c7ccc8c(c7)C(=O)N(C7CCC(=O)NC7=O)C8=O)CC6)C5)CC4)ncc3Cl)ccc2n(C(C)C)c1=O (stereo not drawn) [compound 494, 2-{[6-({5-chloro-2-[4-({8-[2-(2,6-dioxopiperidin-3-yl)-1,3-dioxo-2,3-dihydro-1H-isoindol-5-yl]-2,8-diazaspiro[4.5]decan-2-yl}methyl)piperidin-1-yl]pyrimidin-4-yl}amino)-2-oxo-1-(propan-2-yl)-1,2-dihydroquinolin-3-yl]oxy}-N-methylacetamide]
BCL6 [1]; read-out: IC50
  IC50: < 10 nM
BCL6 [2]
  Dmax: 50 to 70%

## Cn1c(=O)c(-n2ccnc2)cc2cc(Nc3nc(N4CCC(CN5CCN(c6ccc7c(c6)C(=O)N(C6CCC(=O)NC6=O)C7=O)CC5)CC4)ncc3Cl)ccc21 (stereo not drawn) [compound 224, 5-(4-((1-(4-((3-(1H-imidazol-1-yl)-1-methyl-2-oxo-1,2-dihydroquinolin-6-yl)amino)-5-chloropyrimidin-2-yl)piperidin-4-yl)methyl)piperazin-1-yl)-2-(2,6-dioxopiperidin-3-yl)isoindoline-1,3-dione]
BCL6 [1]
  EC50: > 100 nM
BCL6 [2]
  IC50: ≥ 100 nM

## CC(=O)COc1cc2cc(Nc3nc(N4CCN(C(=O)C5CCN(c6ccc7c(c6)C(=O)N(C6CCC(=O)NC6=O)C7=O)CC5)CC4)ncc3Cl)ccc2n(C)c1=O (stereo not drawn) [compound 163, 5-(4-(4-(5-chloro-4-((1-methyl-2-oxo-3-(2-oxopropoxy)-1,2-dihydroquinolin-6-yl)amino)pyrimidin-2-yl)piperazine-1-carbonyl)piperidin-1-yl)-2-(2,6-dioxopiperidin-3-yl)isoindoline-1,3-dione]
BCL6 [1]; [3]
  IC50: 10 to 50 nM
BCL6 [2]; maximum, class symbols A-C
  Dmax: 50 to 70%
BCL6 [2]
  DC50: 10 to 50 nM

## CNC(=O)COc1cc2cc(Nc3nc(N4CCOCC4)ncc3Cl)ccc2n(CCOc2ccc3c(c2)C(=O)N(C2CCC(=O)NC2=O)C3=O)c1=O (stereo not drawn) [compound 475, 2-[(6-{[5-chloro-2-(morpholin-4-yl)pyrimidin-4-yl]amino}-1-(2-{[2-(2,6-dioxopiperidin-3-yl)-1,3-dioxo-2,3-dihydro-1H-isoindol-5-yl]oxy}ethyl)-2-oxo-1,2-dihydroquinolin-3-yl)oxy]-N-methylacetamide]
BCL6 [1]; read-out: IC50
  IC50: ≥ 100 nM
BCL6 [2]
  Dmax: ≥ 70%

## CNC(=O)COc1cc2cc(Nc3nc(N4CCOC(COc5cccc6c5C(=O)N(C5CCC(=O)NC5=O)C6=O)C4)ncc3Cl)ccc2n(C)c1=O (stereo not drawn) [compound 226, 2-((6-((5-chloro-2-(2-(((2-(2,6-dioxopiperidin-3-yl)-1,3-dioxoisoindolin-4-yl)oxy)methyl)morpholino)pyrimidin-4-yl)amino)-1-methyl-2-oxo-1,2-dihydroquinolin-3-yl)oxy)-N-methylacetamide]
BCL6 [1]
  EC50: 10 to 50 nM
BCL6 [2]
  IC50: 50 to 100 nM
  Dmax: < 50%

## Cn1cc(-c2cc3cc(Nc4nc(N5CCC(CN6CCN(c7ccc8c(c7)C(=O)N(C7CCC(=O)NC7=O)C8=O)CC6)CC5)ncc4Cl)ccc3n(C)c2=O)cn1 (stereo not drawn) [compound 205, 5-(4-((1-(5-chloro-4-((1-methyl-3-(1-methyl-1H-pyrazol-4-yl)-2-oxo-1,2-dihydroquinolin-6-yl)amino)pyrimidin-2-yl)piperidin-4-yl)methyl)piperazin-1-yl)-2-(2,6-dioxopiperidin-3-yl)isoindoline-1,3-dione]
BCL6 [1]
  EC50: > 100 nM
BCL6 [2]
  IC50: ≥ 100 nM

## CNC(=O)CCc1cc2cc(Nc3nc(N4CCC(CN5CCN(c6ccc7c(c6)C(=O)N(C6CCC(=O)NC6=O)C7=O)CC5)CC4)ncc3Cl)ccc2n(C)c1=O (stereo not drawn) [compound 155, 3-(6-((5-chloro-2-(4-((4-(2-(2,6-dioxopiperidin-3-yl)-1,3-dioxoisoindolin-5-yl)piperazin-1-yl)methyl)piperidin-1-yl)pyrimidin-4-yl)amino)-1-methyl-2-oxo-1,2-dihydroquinolin-3-yl)-N-methylpropanamide]
BCL6 [1]; [3]
  IC50: ≥ 100 nM
BCL6 [2]
  DC50: > 100 nM

## CC(=O)COc1cc2cc(Nc3nc(N4CCN(C5CCN(CCCOc6ccc7c(c6)CN(C6CCC(=O)NC6=O)C7=O)C5)CC4)ncc3Cl)ccc2n(C)c1=O (stereo not drawn) [compound 158, 3-(5-(3-(3-(4-(5-chloro-4-((1-methyl-2-oxo-3-(2-oxopropoxy)-1,2-dihydroquinolin-6-yl)amino)pyrimidin-2-yl)piperazin-1-yl)pyrrolidin-1-yl)propoxy)-1-oxoisoindolin-2-yl)piperidine-2,6-dione]
BCL6 [1]; [3]
  IC50: < 10 nM
BCL6 [2]; maximum, class symbols A-C
  Dmax: < 50%
BCL6 [2]
  DC50: 10 to 50 nM
